The experiment concerns the target T1, hGPR120 (Homo sapiens, UniProt Q5NUL3).
T1 construct: expressed in transfected cells; host or cells: CHO-K1
T1 sequence (Q5NUL3 1-361): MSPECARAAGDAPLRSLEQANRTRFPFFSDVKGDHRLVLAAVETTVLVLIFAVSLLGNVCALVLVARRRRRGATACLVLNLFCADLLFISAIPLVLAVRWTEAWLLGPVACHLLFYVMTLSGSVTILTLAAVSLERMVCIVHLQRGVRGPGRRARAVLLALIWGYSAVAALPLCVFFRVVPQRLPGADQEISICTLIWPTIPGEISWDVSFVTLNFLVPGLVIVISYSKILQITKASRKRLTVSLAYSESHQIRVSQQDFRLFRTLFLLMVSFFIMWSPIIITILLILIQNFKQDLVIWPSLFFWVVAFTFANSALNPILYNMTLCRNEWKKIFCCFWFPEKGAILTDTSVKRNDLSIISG
The experiment in a line: Measurement of Activity of GPR120 Agonist (Cell-Based Assay), Calcium 5 dye fluorescence. Conditions: CHO-K1 cells expressing Ga16 and hGPR120. The method in brief: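 Fluorescence increase (Ex 485 nm, Em 525 nm) after agonist addition was calculated as relative percent of the 1% DMSO-only signal. Cells were CHO-K1 stably carrying Gα16 plus human GPR120, dye-loaded for 1 h after overnight (18 h) culture.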

A value given as a limit tells only on which side of the number the result lay.

In the case of `O=C(O)CC1CCN(c2c(F)cc(-c3ncc(F)c(OC4CCC4)n3)cc2F)CC1` [Example 371, 2-[1-[4-[4-(cyclobutoxy)-5-fluoro-pyrimidin-2-yl]-2,6-difluoro-phenyl]-4-piperidyl]acetic acid], the EC50 is below 0.2 µM.

Consider `COc1ccc(-c2cc(F)c(SCCCC(=O)O)c(F)c2)c2c1OC(C)(C)C2` [Example 258, 4-[2,6-difluoro-4-(7-methoxy-2,2-dimethyl-2,3-dihydro-benzofuran-4-yl)-phenylsulfanyl]-butyric acid], for which the EC50 was below 0.2 µM. As to `O=C(O)CCCSc1ccc(-c2cccc3c2OC2(CCCC2)O3)cc1F` [Example 157, 4-(2-fluoro-4-spiro[1,3-benzodioxol-2,1′-cyclopentan]-4-yl-phenyl)sulfanylbutanoic acid], the EC50 is below 0.2 µM.

In the case of `O=C(O)CCCC1(c2c(F)cc(-c3cccc(OC4CCC4)n3)cc2F)CC1` [Example 168, 4-{1-[4-(6-cyclobutoxy-pyridin-2-yl)-2,6-difluoro-phenyl]-cyclopropyl}-butyric acid], the EC50 is below 0.2 µM.

Take `COc1cccc(-c2cc(F)c(OCCCC(=O)O)c(F)c2)c1OC` [Example 446, 4-[4-(2,3-dimethoxyphenyl)-2,6-difluoro-phenoxy]butanoic acid]: the EC50 is 0.2 to 2 µM. The figure for `O=C(O)CC1CCN(c2c(F)cc(-c3nccc(OC4CCC4)n3)cc2F)C1` (centres unmarked) [Example 579, {1-[4-(4-cyclobutoxy-pyrimidin-2-yl)-2,6-difluoro-phenyl]-pyrrolidin-3-yl}-acetic acid] is below 0.2 µM; for `CCCCOc1csc(-c2cc(F)c(N3CCC(CC(=O)O)CC3)c(F)c2)n1` [Example 380, {1-[4-(4-butoxy-thiazol-2-yl)-2,6-difluoro-phenyl]-piperidin-4-yl}acetic acid] it is 0.2 to 2 µM. `O=C(O)CCc1ccc2cc(-c3cccc(OC4CCC4)c3)ccc2c1` [Example 147, 3-[6-(3-cyclobutoxy-phenyl)-naphthalen-2-yl]-propanoic acid]: the EC50 is below 0.2 µM. The figure for `CC(C)n1ccc2ccc(-c3cc(F)c(OCCCC(=O)O)c(F)c3)cc21` [Example 558, 4-[2,6-difluoro-4-(1-isopropyl-1H-indol-6-yl)-phenoxy]-butanoic acid] is below 0.2 µM; for `CC(C)Sc1ncccc1-c1cc(F)c(N2CCCC(CC(=O)O)C2)c(F)c1` (centres unmarked) [Example 108, 2-[1-[2,6-difluoro-4-(2-isopropylsulfanyl-3-pyridyl)phenyl]-3-piperidyl]acetic acid] it is 2 to 20 µM; for `CC(C)Sc1cccc(-c2ccc3c(c2)CCC(CCC(=O)O)O3)n1` (centres unmarked) [Example 8, 3-[6-(6-isopropylsulfanyl-pyridin-2-yl)-chroman-2-yl]-propionic acid] it is below 0.2 µM. The same measure for `CC(Oc1cccc(-c2cc(F)c(N3CCC(CC(=O)O)CC3)c(F)c2)n1)C(F)(F)F` (centres unmarked) [Example 316, 2-[1-[2,6-difluoro-4-[6-(2,2,2-trifluoro-1-methyl-ethoxy)-2-pyridyl]phenyl]-4-piperidyl]acetic acid]: 0.2 to 2 µM.

Turning to `CC(C)Oc1ccnc(-c2cc(F)c(N3CCC(CC(=O)O)CC3)c(F)c2)n1` [Example 346, 2-[1-[2,6-difluoro-4-(4-isopropoxypyrimidin-2-yl)phenyl]-4-piperidyl]acetic acid], the EC50 was below 0.2 µM.

With `CC(C)Sc1ncccc1-c1cc(F)c(N2CC(CC(=O)O)C2)c(F)c1` [Example 109, 2-[1-[2,6-difluoro-4-(2-isopropylsulfanyl-3-pyridyl)phenyl]azetidin-3-yl]acetic acid], the EC50 is below 0.2 µM. Take `CCN(CCCCC(=O)O)c1c(F)cc(-c2cccnc2OC2CCCC2)cc1F` [Example 95, 5-[4-[2-(cyclopentoxy)-3-pyridyl]-N-ethyl-2,6-difluoro-anilino]pentanoic acid]: the EC50 was 0.2 to 2 µM.

As for `COc1cccc2ccn(-c3cc(F)c(OCCCC(=O)O)c(F)c3)c12` [Example 479, 4-[2,6-difluoro-4-(7-methoxyindol-1-yl)phenoxy]butanoic acid], the EC50 was below 0.2 µM.

For the compound `CC(C)CCc1cncc(-c2cc(F)c(N3CCC(CC(=O)O)CC3)c(F)c2)n1` [Example 370, 2-[1-[2,6-difluoro-4-(6-isopentylpyrazin-2-yl)phenyl]-4-piperidyl]acetic acid], the EC50 was in the range of 0.2 to 2 µM. The same measure for `Oc1cc(COc2c(F)cc(-c3cccnc3OC3CCCC3)cc2F)on1` [Example 67, 5-[[4-[2-(cyclopentoxy)-3-pyridyl]-2,6-difluoro-phenoxy]methyl]isoxazol-3-ol]: below 0.2 µM; for `COc1ccc(-c2cc(F)c(OCCCC(=O)O)c(F)c2)c2c1OC(C)(C)C2` [Example 257, 4-[2,6-difluoro-4-(7-methoxy-2,2-dimethyl-2,3-dihydro-benzofuran-4-yl)-phenoxy]-butyric acid]: below 0.2 µM. Consider `CCOc1ccnc(-c2cc(F)c(N3CCC(CC(=O)O)CC3)c(F)c2)n1` [Example 345, 2-[1-[4-(4-ethoxypyrimidin-2-yl)-2,6-difluoro-phenyl]-4-piperidyl]acetic acid], for which the EC50 was below 0.2 µM. The same measure for `CC(C)Sc1ncccc1-c1ccc2c(c1)CCC(CCC(=O)O)O2` (centres unmarked) [Example 7, 3-[6-(2-isopropylsulfanyl-pyridin-3-yl)-chroman-2-yl]-propionic acid]: below 0.2 µM; for `CC(C)Sc1ncccc1-c1ccc2nc(CCC(=O)O)ccc2c1` [Example 1, 3-[6-(2-isopropylsulfanyl-pyridin-3-yl)-quinolin-2-yl]-propionic acid]: 0.2 to 2 µM. The same measure for `O=C(O)CC1CCN(c2c(F)cc(-c3cccc(C(=O)C4CC4)n3)cc2F)CC1` [Example 312, 2-[1-[4-[6-(cyclopropanecarbonyl)-2-pyridyl]-2,6-difluoro-phenyl]-4-piperidyl]acetic acid]: 0.2 to 2 µM; for `Cc1nc(COCC2CC2)c(-c2cc(F)c(OCCCC(=O)O)c(F)c2)s1` [Example 568, 4-[4-(4-cyclopropylmethoxymethyl-2-methyl-thiazol-5-yl)-2,6-difluoro-phenoxy]-butanoic acid]: 2 to 20 µM.

Turning to `CC1(C)Cc2cc(F)cc(-c3cc(F)c(OCCCC(=O)O)c(F)c3)c2N1` [Example 266, 4-[2,6-difluoro-4-(5-fluoro-2,2-dimethyl-2,3-dihydro-1H-indol-7-yl)-phenoxy]-butyric acid], the EC50 fell in the range of 0.2 to 2 µM. In the case of `COc1ccc(-c2cc(F)c(N(C)CCCC(=O)O)c(F)c2)nc1OC1CCC1` [Example 456, 4-[4-[6-(cyclobutoxy)-5-methoxy-2-pyridyl]-2,6-difluoro-N-methyl-anilino]butanoic acid], the EC50 was below 0.2 µM. `CCCOc1ncccc1-c1cc(F)c(OCc2cc(O)no2)c(F)c1` [Example 74, 5-[[2,6-difluoro-4-(2-propoxy-3-pyridyl)phenoxy]methyl]isoxazol-3-ol]: the EC50 was below 0.2 µM. The same measure for `CC(C)Sc1cccc(-c2cc(F)c(C(C)CCCC(=O)O)c(F)c2)n1` (centres unmarked) [Example 53, 5-[2,6-difluoro-4-(6-isopropylsulfanyl-2-pyridyl)-phenyl]hexanoic acid]: below 0.2 µM; for `Cc1cc2cc(Cl)cc(-c3cc(F)c(C(C)CCCC(=O)O)c(F)c3)c2o1` (centres unmarked) [Example 519, 5-[4-(5-chloro-2-methyl-benzofuran-7-yl)-2,6-difluoro-phenyl]-hexanoic acid]: 0.2 to 2 µM.

For the origin of these results see patent publication US11261186B2, “Biaryl derivative as GPR120 agonist” (LG CHEM, LTD., priority 2014, dated 2022).
